Measured values as given in patent US8765730B2 (Hoffmann-La Roche Inc, priority 2010, dated 2014).

Molecular target: T1, human GPBAR1 receptor (Homo sapiens, UniProt Q8TDU6)
T1 construct: expressed in transfected cells
T1 sequence (Q8TDU6 1-330): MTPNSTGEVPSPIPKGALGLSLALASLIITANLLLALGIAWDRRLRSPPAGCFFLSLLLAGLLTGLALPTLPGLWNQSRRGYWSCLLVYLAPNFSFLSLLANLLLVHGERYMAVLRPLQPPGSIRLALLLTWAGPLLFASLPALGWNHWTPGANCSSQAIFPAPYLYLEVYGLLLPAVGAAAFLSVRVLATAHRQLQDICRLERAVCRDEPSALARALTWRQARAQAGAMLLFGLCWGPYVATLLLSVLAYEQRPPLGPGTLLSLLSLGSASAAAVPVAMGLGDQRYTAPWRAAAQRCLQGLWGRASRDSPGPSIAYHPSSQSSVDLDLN
Assay: functional cAMP assay in CHO-dhfr(minus) cells expressing human GPBAR1 receptors
Type: cell-based
Conditions: human EC50, functional cAMP assay, 30 min at 30° C.
Procedure, shortened: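 Agonist cAMP read-out: stable GPBAR1 CHO-dhfr− clone, 30 min compound exposure at 30° C following 30 min IBMX (1 mM) preincubation in Krebs Ringer bicarbonate. Time-resolved energy-transfer detection gives EC50; parental CHO cells serve as counter-screen.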

| SMILES | EC50 |
| --- | --- |
| O/N=C(\CC(c1ccccc1)c1ccc(C2CC2)cc1)c1ccncc1 (stereo not drawn) [Example 16, (E)-3-(4-Cyclopropyl-phenyl)-3-phenyl-1-pyridin-4-yl-propan-1-one oxime] | 178 nM |
| Cc1cc(C(CC(c2ccc(-c3ccc(C(=O)O)c(F)c3)cc2)c2ccccc2C)=NO)ccn1 (racemic) [Example 112, 3-Fluoro-4′-[3-[hydroxyimino]-3-(2-methyl-pyridin-4-yl)-1-o-tolyl-propyl]-biphenyl-4-carboxylic acid] | 16 nM |
| Cc1cc(/C(CC(c2ccccc2)c2ccccn2)=N/O)cc(C)n1 (stereo not drawn) [Example 68, (E)-1-(2,6-Dimethyl-pyridin-4-yl)-3-phenyl-3-pyridin-2-yl-propan-1-one oxime] | 341 nM |
| Cc1ccccc1C(C/C(=N\O)c1ccc(=O)n(C)c1)c1ccc(C(=O)NCCCC(=O)O)cc1 (stereo not drawn) [Example 213, 4-{4-[3-[(E)-Hydroxyimino]-3-(1-methyl-6-oxo-1,6-dihydro-pyridin-3-yl)-1-o-tolyl-propyl]-benzoylamino}-butyric acid] | 1310 nM |
| Cn1cc(/C(CC(c2ccc(Br)cc2)C2CCCC2)=N\O)ccc1=O (stereo not drawn) [Example 173, 5-{3-(4-Bromo-phenyl)-3-cyclopentyl-1-[(Z)-hydroxyimino]-propyl}-1-methyl-1H-pyridin-2-one] | 1930 nM |
| COC(=O)c1ccc(-c2ccc(C(CC(=NO)c3ccnc(C)c3)c3ccccc3C)cc2)c(F)c1 (racemic) [Example 81, 2-Fluoro-4′-[3-[hydroxyimino]-3-(2-methyl-pyridin-4-yl)-1-o-tolyl-propyl]-biphenyl-4-carboxylic acid methyl ester] | 295 nM |
| Cc1ccccc1C(C/C(=N\O)c1ccc(=O)n(C)c1)c1ccc(Br)cc1F (stereo not drawn) [Example 193, 5-{3-(4-Bromo-2-fluoro-phenyl)-1-[(E)-hydroxyimino]-3-o-tolyl-propyl}-1-methyl-1H-pyridin-2-one] | 19 nM |
| COc1ccc(C2(C/C(=N\O)c3ccnc(C)c3)CCCCC2)cc1 [Example 158, (E)-2-[1-(4-Methoxy-phenyl)-cyclohexyl]-1-(2-methyl-pyridin-4-yl)-ethanone oxime] | 1030 nM |
| Cc1cc(/C(CC(c2ccc(/C=C/C(=O)O)cc2)c2ccccc2C)=N\O)ccn1 (racemic) [Example 87, 3-{4-[3-[Hydroxyimino]-3-(2-methyl-pyridin-4-yl)-1-o-tolyl-propyl]-phenyl}-acrylic acid] | 241 nM |
| CC(C)CC(CC(=NO)c1ccncc1)c1ccc(Br)cc1 (racemic) [Example 114, 3-(4-Bromo-phenyl)-5-methyl-1-pyridin-4-yl-hexan-1-one oxime] | 1080 nM |

Other lines, results leading:

| EC50 | SMILES |
| --- | --- |
| 33 nM | Cc1cc(/C(C[C@H](c2ccc(C3CCN(S(C)(=O)=O)CC3)cc2)c2ccc(Cl)cc2C)=N/O)ccn1 [Example 389, (R,E)-3-(4-Chloro-2-methylphenyl)-1-(2-methylpyridin-4-yl)-3-(4-(1-(methylsulfonyl)-piperidin-4-yl)phenyl)propan-1-one oxime] |
| 680 nM | Cn1cc(/C(CC(c2ccc(C(=O)NC3COC3)c(F)c2)c2ccccc2Cl)=N/O)ccc1=O (stereo not drawn) [Example 220, (E)-4-(1-(2-Chlorophenyl)-3-(hydroxyimino)-3-(1-methyl-6-oxo-1,6-dihydropyridin-3-yl)propyl)-2-fluoro-N-(oxetan-3-yl)benzamide] |
| 25 nM | Cc1cc(/C(C[C@H](c2ccc(C3CCC(C(=O)O)CC3)cc2)c2ccc(Cl)cc2C)=N/O)ccn1 (stereo partly drawn) [Example 503, (R,E)-4-(4-(1-(4-Chloro-2-methylphenyl)-3-(hydroxyimino)-3-(2-methylpyridin-4-yl)propyl)phenyl)cyclohexanecarboxylic acid] |
| 11 nM | Cc1cc(Cl)ccc1C(C/C(=N\O)c1ccc(=O)n(C)c1)c1ccc(OCCO)c(F)c1 (stereo not drawn) [Example 328, 5-{3-(4-Chloro-2-methyl-phenyl)-3-[3-fluoro-4-(2-hydroxy-ethoxy)-phenyl]-1-[(E)-hydroxyimino]-propyl}-1-methyl-1H-pyridin-2-one] |
| 90 nM | Cc1cc(/C(C[C@H](c2ccc(N[C@H]3C[C@H](C(=O)O)C3)cc2)c2ccccc2C)=N/O)ccn1 [Example 356, 3-{4-[(R)-3-[(E)-Hydroxyimino]-3-(2-methyl-pyridin-4-yl)-1-o-tolyl-propyl]-phenylamino}-cyclobutanecarboxylic acid] |
| 153 nM | Cc1ccccc1C(C/C(=N\O)c1ccc(=O)n(C)c1)c1ccc(C(=O)NCCS(C)(=O)=O)cc1 (stereo not drawn) [Example 310, (E)-4-(3-(Hydroxyimino)-3-(1-methyl-6-oxo-1,6-dihydropyridin-3-yl)-1-o-tolylpropyl)-N-(2-(methylsulfonyl)ethyl)benzamide] |
| 250 nM | CCNC(=O)c1ccc(C(C/C(=N\O)c2ccc(=O)n(C)c2)c2ccccc2Cl)cc1F (stereo not drawn) [Example 245, (E)-4-(1-(2-Chlorophenyl)-3-(hydroxyimino)-3-(1-methyl-6-oxo-1,6-dihydropyridin-3-yl)propyl)-N-ethyl-2-fluorobenzamide] |
| 647 nM | Cn1cc(/C(CC(c2cccc(S(C)(=O)=O)c2)c2ccc(Cl)cc2F)=N/O)ccc1=O (stereo not drawn) [Example 315, (E)-5-(3-(4-Chloro-2-fluorophenyl)-1-(hydroxyimino)-3-(3-(methylsulfonyl)phenyl)propyl)-1-methylpyridin-2(1H)-one] |
| 10 nM | Cn1cc(/C(CC(c2ccc(CO)cc2)c2ccc(Cl)cc2F)=N/O)ccc1=O (stereo not drawn) [Example 317, (E)-5-(3-(4-chloro-2-fluorophenyl)-1-(hydroxyimino)-3-(4-(hydroxymethyl)phenyl)propyl)-1-methylpyridin-2(1H)-one] |
| 17 nM | Cc1cc(/C(C[C@H](c2ccc(-c3ccc(C(=O)O)cc3)cc2)c2ccc(F)cc2C)=N/O)ccn1 (single isomer, unassigned) [Example 397, (+)-4′-[1-(4-Fluoro-2-methyl-phenyl)-3-[(E)-hydroxyimino]-3-(2-methyl-pyridin-4-yl)-propyl]-biphenyl-4-carboxylic acid; compound with triethylamine 1:0.75] |
| 612 nM | Cc1ccccc1[C@@H](C/C(=N\O)c1ccc(=O)n(C)c1)c1ccc([C@H]2CC[C@H](C(=O)O)CC2)cc1 [Example 488, Trans-4-(4-((S,E)-3-(Hydroxyimino)-3-(1-methyl-6-oxo-1,6-dihydropyridin-3-yl)-1-o-tolylpropyl)phenyl)cyclohexanecarboxylic acid] |
| 267 nM | Cc1cc(Cl)ccc1C(C/C(=N\O)c1ccc(=O)n(C)c1)c1ccc(OCCCC(=O)O)cc1 (stereo not drawn) [Example 349, 4-{4-[1-(4-Chloro-2-methyl-phenyl)-3-[(E)-hydroxyimino]-3-(1-methyl-6-oxo-1,6-dihydro-pyridin-3-yl)-propyl]-phenoxy}-butyric acid] |
| 648 nM | Cc1cc(/C(C[C@@H](c2ccc(C(=O)O)cc2)c2ccc(Cl)cc2C)=N/O)ccn1 [Example 282, 4-[(S)-1-(4-Chloro-2-methyl-phenyl)-3-[(E)-hydroxyimino]-3-(2-methyl-pyridin-4-yl)-propyl]-benzoic acid] |
| 37 nM | Cc1ccccc1[C@H](C/C(=N\O)c1ccnc(Cl)c1)c1ccc(-c2ccc(C(=O)O)cc2)cc1 [Example 290, 4′-{(R)-3-(2-Chloro-pyridin-4-yl)-3-[(E)-hydroxyimino]-1-o-tolyl-propyl}-biphenyl-4-carboxylic acid] |
